# Test results: patent US20220280594A1, “APPLICATION OF POLYPEPTIDE OR DERIVATIVE THEREOF” (CHENGDU HUITAI BIOMEDICINE CO., LTD., priority 2019, published 2022)
# Ends that are not written are not given here. PEG = not defined here
# Columns and labels:
# [1] = test system: human lung cancer cells (A549) subcutaneous xenograft; experiment: lung cancer subcutaneous xenograft animal model, intravenous injection; format: in vivo, mice (BALB/c-nu/nu); conditions: intravenous 60 mg/kg once every other day, 20 days; for Weight of tumor (g) (mean ± SD): control 2.53 ± 0.17; for Volume of tumor (mm^3) (mean ± SD): control 3373.26 ± 581.44
# Summary of the method: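 Female BALB/c-nu/nu mice (4-6 weeks) inoculated subcutaneously with ~2×10^6 A549 cells; grouped once tumours exceeded 100 mm^3. Peptides given intravenously at 60 mg/kg for 20 days versus model control. Tumour weight and volume measured at dissection; body weight recorded every other day.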
# [2] = test system: human pancreatic cancer cells (PANC-1); experiment: transwell migration assay, PANC-1 cells; format: cell-based; conditions: PANC-1 transwell migration, 10 μM, 24 hours; control group 360 ± 60
# Summary of the method: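 Serum-free PANC-1 cells placed in the upper transwell chamber with complete medium below; after 4-5 h, peptide added to the upper chamber at a final 10 μM. Migration ran 24 h at 37 °C; cells on the membrane underside were methanol-fixed, crystal violet-stained and counted by microscopy.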
# [3] = test system: human pancreatic cancer cells (PANC-1); experiment: transwell invasion assay, PANC-1 cells; format: cell-based; conditions: PANC-1 transwell invasion, 10 μM, 24 hours; control group 727 ± 68
# Summary of the method: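 Serum-free PANC-1 cells were seeded in matrigel-coated upper chambers with complete medium below. After 4-5 hours at 37° C., peptide was added at 10 μM final. Following 24 hours, invaded cells on the lower membrane surface were fixed, crystal violet-stained, imaged and counted against untreated controls.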
# [4] = test system: human liver adenocarcinoma cells (SK-HEP-1); experiment: transwell migration assay, SK-HEP-1 cells; format: cell-based; conditions: SK-HEP-1 transwell migration, 10 μM, 24 hours; control group 1 782 ± 108, control group 2 768 ± 86
# Summary of the method: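 SK-HEP-1 cells in serum-free medium seeded in upper transwell chamber (2-3×10^5 cells/mL) over complete medium; after 4-5 h at 37 °C, 5% CO2, peptide added at 10 μM final in upper chamber. After 24 h, migrated cells fixed in methanol, crystal-violet stained, imaged and counted.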
# [5] = test system: human liver adenocarcinoma cells (SK-HEP-1); experiment: transwell invasion assay, SK-HEP-1 cells; format: cell-based; conditions: SK-HEP-1 transwell invasion, 10 μM, 24 hours; control group 767 ± 91
# Summary of the method: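 Serum-free SK-HEP-1 cells were seeded in matrigel-coated upper chambers over complete medium. After 4-5 h, peptide was added to the upper chamber at 10 μM final. Following 24 h at 37° C., invaded cells were fixed, crystal violet-stained, imaged and counted.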
Substance,Weight of tumor (g) (mean ± SD) [1],Volume of tumor (mm^3) (mean ± SD) [1],"Number of cells (mean ± SD, P), migrated cells [2]","Number of cells (mean ± SD, P), invaded cells [3]","Number of cells (mean ± SD, P), migrated cells [4]","Number of cells (mean ± SD, P), invaded cells [5]"
N29: SEQ ID NO: 1 with deletion of positions 1-5 and 15-18 and PEG modification at the amino terminal ({PEG}-LAKENVTQD; reading uncertain),1 ± 0.17,1365.48 ± 435.32,"178 ± 31,***","213 ± 17,****","254 ± 14,****","322 ± 56,***"
N14: SEQ ID NO: 1 with deletion of positions 1-5 and addition of one amino acid at the carboxyl terminal (LAKENVTQDAEDNC),0.7 ± 0.26,1431.61 ± 215.71,"263 ± 16,*","157 ± 37,****","61 ± 14,****","329 ± 54,***"
"N33: SEQ ID NO: 1 with deletion of positions 1-5, addition of one amino acid and PEG modification at the carboxyl terminal (LAKENVTQDAEDNC-{PEG}; reading uncertain)",0.57 ± 0.24,1699.23 ± 709.14,"178 ± 14,***","345 ± 27,***","354 ± 31,***","197 ± 32,****"
"N41: SEQ ID NO: 1 with addition of two amino acids at the amino terminal, deletion of position 18, PEG at the carboxyl terminal (FRYRVRFLAKENVTQDAED-{PEG}; reading uncertain)",0.84 ± 0.34,1075.33 ± 350.78,"248 ± 22,*","288 ± 38,****","280 ± 24,****","58 ± 12,****"
"N49: SEQ ID NO: 1 with A7R, deletion of positions 1-2 and position 18, PEG modification at the carboxyl terminal (VRFLRKENVTQDAED-{PEG}; reading uncertain)",0.73 ± 0.26,1513.42 ± 287.49,"137 ± 29,***","141 ± 7,****","137 ± 11,****","335 ± 32,***"
"N23: SEQ ID NO: 1 with substitution A7R, deletion of position 11 and of positions 15-18 (YRVRFLRKENTQDAED)",0.65 ± 0.17,993.11 ± 298.65,"200 ± 14,***","196 ± 26,****","276 ± 24,****","456 ± 45,**"
N21: SEQ ID NO: 1 with deletion of positions 1-5 and 15-18 and addition of one amino acid at the amino terminal (SLAKENVTQD),0.71 ± 0.22,1065.78 ± 432.05,"216 ± 12,***","269 ± 28,****","34 ± 7,****","356 ± 60,***"
"N47: SEQ ID NO: 1 with N18R, deletion of positions 1-2, one amino acid added and PEG at the carboxyl terminal (VRFLAKENVTQDAEDRC-{PEG}; reading uncertain)",0.75 ± 0.39,1748.82 ± 508.08,"135 ± 10,***","133 ± 29,****","179 ± 17,****","85 ± 16,****"
N17: SEQ ID NO: 1 with addition of two amino acids to the carboxyl terminal (YRVRFLAKENVTQDAEDNCT),0.9 ± 0.16,1301.58 ± 329.64,"244 ± 14,*","95 ± 6,****","50 ± 5,****","165 ± 28,****"
N30: SEQ ID NO: 1 with deletion of positions 1-5 and 15-18 and PEG modification at the carboxyl terminal (LAKENVTQD-{PEG}; reading uncertain),1.01 ± 0.34,1187.13 ± 246.31,"243 ± 33,*","237 ± 15,****","156 ± 22,****","85 ± 20,****"
N25: SEQ ID NO: 1 with substitution N18R and addition of two amino acids at the carboxyl terminal (YRVRFLAKENVTQDAEDRCT),0.69 ± 0.21,1169.92 ± 572.47,"217 ± 31,**","247 ± 17,****","58 ± 15,****","411 ± 30,***"
N4: SEQ ID NO: 1 with deletion of positions 15-18 and positions 1-3 (RFLAKENVTQD),0.56 ± 0.19,1515.07 ± 507.99,"268 ± 20,*","37 ± 4,****","357 ± 21,***","411 ± 75,**"
"N35: SEQ ID NO: 1 with A15R, addition of one amino acid and PEG modification at the carboxyl terminal (YRVRFLAKENVTQDREDNC-{PEG}; reading uncertain)",0.75 ± 0.24,1097.54 ± 216.63,"151 ± 10,***","358 ± 23,***","315 ± 36,***","338 ± 43,***"
N15: SEQ ID NO: 1 with substitution N18R and addition of one amino acid to the carboxyl terminal (YRVRFLAKENVTQDAEDRC),0.95 ± 0.18,1307.48 ± 416.26,"220 ± 18,**","104 ± 9,****","131 ± 10,****","418 ± 36,**"
